Consider one molecule from PMC3652196, “Pharmacometrics of 3-Methoxypterostilbene: A Component of Traditional Chinese Medicinal Plants” (Evidence-based Complementary and Alternative Medicine : eCAM, 2013).

Series [1] has as its system human leukemia-derived HL60 cells. The note with it: cited from earlier work.
Series [2] has as its system α-glucosidase from Saccharomyces cerevisiae. As to the kind of experiment: α-Glucosidase inhibition colorimetric assay (PNPG). It counts as biochemical. The note with it: 0 to 200 μg/mL, n = 6.
Series [3] relates to 9 KB. Set-up: method as in PMID 3598597. The note with it: cited from earlier work.
The nature of series [4]: Antioxidant capacity (inhibition of oxidation of ABTS to ABTS radical cation by metmyoglobin, Cayman kit). It counts as biochemical. The following applies: for Antioxidant capacity (Trolox equivalents): n = 4, mean ± SEM. Here is the method:
The amount of ABTS^∙+ can be monitored spectrophotometrically. The degree of suppression of absorbance caused by the compound of interest is proportional to the concentration of […], which is expressed as Trolox equivalents (μg/mL). […] No additional dilution was employed. To run the assay, 10 μL of sample was combined with 10 μL metmyoglobin and 150 μL chromogen. Then, 40 μL of hydrogen peroxide working solution was added within 1 min to all the samples. The plate was covered and incubated on a shaker for 5 min at room temperature […]), and the absorbance was measured at 750 nm using the Synergy HT multiwell plate reader and Gen5 data analysis software (Biotek Instruments Inc., Winooski, VT, USA). The assay was performed in quadruplet. For more information regarding the assay protocol, please refer to the instructions for the kit (Antioxidant Assay Kit from Cayman Chemical—Cat. no. 709091).

For series [5], the target named is T1, COX-1 (Ovis aries, UniProt P05979).
T1 construct: purchased Cayman Chemical 560131
T1 sequence (P05979 25-600): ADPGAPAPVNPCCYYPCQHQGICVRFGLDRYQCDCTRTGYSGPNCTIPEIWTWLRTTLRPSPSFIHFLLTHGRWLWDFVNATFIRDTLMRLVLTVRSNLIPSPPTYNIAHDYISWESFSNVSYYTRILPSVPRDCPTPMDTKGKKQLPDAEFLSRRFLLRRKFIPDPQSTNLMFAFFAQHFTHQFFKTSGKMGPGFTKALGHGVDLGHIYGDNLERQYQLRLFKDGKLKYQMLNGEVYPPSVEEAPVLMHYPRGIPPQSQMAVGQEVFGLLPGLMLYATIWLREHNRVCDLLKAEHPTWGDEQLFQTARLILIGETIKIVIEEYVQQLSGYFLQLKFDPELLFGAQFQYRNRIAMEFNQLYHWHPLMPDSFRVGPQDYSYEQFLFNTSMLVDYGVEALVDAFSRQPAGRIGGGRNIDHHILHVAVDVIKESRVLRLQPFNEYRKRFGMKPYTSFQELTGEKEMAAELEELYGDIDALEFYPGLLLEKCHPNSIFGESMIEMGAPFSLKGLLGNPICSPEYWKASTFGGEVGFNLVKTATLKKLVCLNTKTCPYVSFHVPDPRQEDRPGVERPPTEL
As to the kind of experiment: COX inhibitor screening assay (EIA of prostaglandins), COX-1. It counts as biochemical. As for the experimental part: The inhibition of COX-1 and -2 by 3-methoxypterostilbene was measured through the use of a three-day commercial assay kit. The assay relied on the quantification of the prostanoid product based on enzyme immunoassay (EIA), which uses a nonspecific antibody for prostaglandins (PGs). The constant concentration of the PG-AChE-tracer and the varying concentrations of the PGs available to bind to the antiserum is inversely proportional to the concentration of free PGs in the well. For this assay, 3-methoxypterostilbene was dissolved in DMSO over the concentration range of 1–250 μg/mL. Ibuprofen and etodolac, COX-2 preferential NSAIDs, were dissolved in DMSO and used as controls over the concentration range of 1–250 μg/mL. Reagents were prepared according to the manufacturer's instructions that accompanied the kit. The ELISA plate for this purpose was read at an absorbance of 415 nm within 10 minutes at room temperature (23 ± 1°C) using the Synergy HT multiwell plate reader and Gen5 data analysis software (Biotek Instruments Inc., Winooski, VT, USA). The assay was performed in quadruplet. For more information regarding the assay protocol, please refer to the instructions for the kit (COX Inhibitor Screening Assay Kit from Cayman Chemical—Cat. no. 560131).

SMILES strings stand for the structures. Where “and” joins values, the source holds several entries; their conditions need not be identical. Equal values may be shown once. Entries after “also recorded” stand apart in the source; their conditions may differ.

In the case of `COc1cc(/C=C/c2ccc(O)c(OC)c2)cc(OC)c1` [3-methoxypterostilbene, trans-3,3′-5-trimethoxy-4′-hydro-xystilbene], in series [1], the Apoptotic-inducing activity entry is reported as “greater apoptotic-inducing activity than resveratrol”. In addition, the “α-Glucosidase inhibition (in words)” value in series [2] is “does not appear to exhibit greater inhibition at higher concentrations”. In series [3], the “Activity in 9 KB cytotoxicity assay compared with piceatannol” value is “significantly greater activity”. Further, the “Antioxidant activity (in words)” value in series [4] (1-100 μg/mL) is “modest concentration-dependent antioxidant activity”. Besides, the “Antioxidant capacity (Trolox equivalents)” value was 98.6 ± 13.7 μg/mL and 0.394 ± 0.0546 mM in series [4] (at 1 μg/mL in DMSO); 174 ± 2.70 μg/mL and 0.695 ± 0.0094 mM in series [4] (at 100 μg/mL in DMSO). Further, in series [5] (250 μg/mL, compared with ibuprofen and etodolac), the “COX-1 inhibition versus NSAIDs (in words)” value was “significantly greater activity (P < 0.05) than the NSAIDs at low doses”. For the same molecule, the “COX-1 inhibitory activity (in words)” value in series [5] (1, 10 and 250 μg/mL) is “positive concentration-dependent inhibitory activity; also recorded: strong COX-1 inhibition comparable to two NSAIDs”.
